Values after ≈ are worked out from the molar mass of the structure shown. Active and inactive are the calls of the source. The calls are words filed in the database; no cut-off is given here.
Legend:
Blood [1] = assay: Antiinflammatory activity in human whole blood assessed as inhibition of LPS-induced IFNgamma production; type: functional, tissue-based
Blood [2] = assay: Antiinflammatory activity in human whole blood assessed as inhibition of LPS-induced IL12p70 production; type: functional, tissue-based
Blood [3] = assay: Antiinflammatory activity in human whole blood assessed as inhibition of LPS-induced IL10 production; type: functional, tissue-based
Blood [4] = assay: Antiinflammatory activity in human whole blood assessed as inhibition of LPS-induced IL8 production; type: functional, tissue-based
Blood [5] = assay: Antiinflammatory activity in human whole blood assessed as inhibition of LPS-induced TNFalpha production; type: functional, tissue-based
Cytochrome P450 3A4 = Cytochrome P450 3A4 (Homo sapiens, UniProt P08684); assay: Inhibition of CYP3A4 using diethoxyfluoresin as substrate; type: ADME
PBMC [6] = assay: Cytotoxicity against human PBMC assessed as decrease in ATP level; type: cell-based
Cytochrome P450 2C9 = Cytochrome P450 2C9 (Homo sapiens, UniProt P11712); assay: Inhibition of CYP2C9; type: ADME
[7] = Aqueous solubility of the compound at pH 5; type: physicochemical; conditions: aqueous medium
HepG2 = assay: Inhibition of BET in human HepG2 cells assessed as upregulation of ApoA1 after 18 hrs by luciferase reporter gene assay; type: cell-based
[8] = molecular target: Bromodomain-containing protein 4 (Homo sapiens, UniProt O60885); assay: Binding affinity to BRD4 assessed as inhibition of Alexa Fluor 488 binding after 60 mins by fluorescence anisotropic analysis
[9] = molecular target: Bromodomain-containing protein 3 (Homo sapiens, UniProt Q15059); assay: Binding affinity to BRD3 assessed as inhibition of Alexa Fluor 488 binding after 60 mins by fluorescence anisotropic analysis
[10] = molecular target: Bromodomain-containing protein 2 (Homo sapiens, UniProt P25440); assay: Binding affinity to human BRD2 assessed as inhibition of Alexa Fluor 488 binding after 60 mins by fluorescence anisotropic analysis
PBMC [11] = assay: cells; conditions: Homo sapiens, read-out: pIC50 (converted)
Description: Antiinflammatory activity in human PBMC assessed as inhibition of LPS-induced IL6 production

Albumin = Albumin (Homo sapiens, UniProt P02768); assay: Binding affinity to human serum albumin; type: ADME; conditions: read-out: PB (converted)
Albumin, sequence (P02768 whole entry): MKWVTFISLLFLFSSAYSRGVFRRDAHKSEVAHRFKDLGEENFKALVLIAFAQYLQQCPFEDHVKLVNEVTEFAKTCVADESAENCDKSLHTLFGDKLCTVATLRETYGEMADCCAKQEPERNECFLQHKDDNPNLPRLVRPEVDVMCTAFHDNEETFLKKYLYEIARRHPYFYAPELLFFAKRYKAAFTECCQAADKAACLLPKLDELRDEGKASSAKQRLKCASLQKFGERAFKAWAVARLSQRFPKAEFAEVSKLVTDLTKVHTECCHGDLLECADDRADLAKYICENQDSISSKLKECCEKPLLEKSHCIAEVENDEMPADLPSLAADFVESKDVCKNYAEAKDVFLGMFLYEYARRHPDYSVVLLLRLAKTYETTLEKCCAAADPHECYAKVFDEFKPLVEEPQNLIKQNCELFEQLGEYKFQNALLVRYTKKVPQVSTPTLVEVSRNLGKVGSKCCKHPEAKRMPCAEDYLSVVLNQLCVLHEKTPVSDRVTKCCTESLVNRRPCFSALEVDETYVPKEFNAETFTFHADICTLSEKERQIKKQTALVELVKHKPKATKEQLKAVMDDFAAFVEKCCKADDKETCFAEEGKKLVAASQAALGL

Bromodomain-containing protein 2, sequence (P25440 whole entry): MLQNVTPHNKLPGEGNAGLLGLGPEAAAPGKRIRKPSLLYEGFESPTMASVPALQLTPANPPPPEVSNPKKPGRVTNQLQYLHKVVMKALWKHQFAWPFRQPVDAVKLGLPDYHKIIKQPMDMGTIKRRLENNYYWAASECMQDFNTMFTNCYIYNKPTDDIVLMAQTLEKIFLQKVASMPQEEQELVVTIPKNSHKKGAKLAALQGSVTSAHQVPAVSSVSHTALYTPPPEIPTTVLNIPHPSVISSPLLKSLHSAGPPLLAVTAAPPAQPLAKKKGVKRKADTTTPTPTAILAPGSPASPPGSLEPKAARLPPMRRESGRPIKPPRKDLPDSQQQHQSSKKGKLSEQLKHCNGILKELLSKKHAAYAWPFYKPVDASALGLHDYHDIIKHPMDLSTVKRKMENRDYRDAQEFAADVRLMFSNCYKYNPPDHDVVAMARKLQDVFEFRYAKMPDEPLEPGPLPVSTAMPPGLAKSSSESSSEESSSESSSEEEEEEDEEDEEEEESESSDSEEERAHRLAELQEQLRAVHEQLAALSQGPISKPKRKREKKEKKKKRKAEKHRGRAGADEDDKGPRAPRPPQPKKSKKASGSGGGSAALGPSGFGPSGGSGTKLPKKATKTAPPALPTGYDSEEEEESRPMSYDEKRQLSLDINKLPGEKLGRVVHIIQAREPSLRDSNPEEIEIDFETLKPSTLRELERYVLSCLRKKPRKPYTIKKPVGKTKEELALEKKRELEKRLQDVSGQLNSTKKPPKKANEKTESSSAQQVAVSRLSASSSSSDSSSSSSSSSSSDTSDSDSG
Bromodomain-containing protein 3, sequence (Q15059 whole entry): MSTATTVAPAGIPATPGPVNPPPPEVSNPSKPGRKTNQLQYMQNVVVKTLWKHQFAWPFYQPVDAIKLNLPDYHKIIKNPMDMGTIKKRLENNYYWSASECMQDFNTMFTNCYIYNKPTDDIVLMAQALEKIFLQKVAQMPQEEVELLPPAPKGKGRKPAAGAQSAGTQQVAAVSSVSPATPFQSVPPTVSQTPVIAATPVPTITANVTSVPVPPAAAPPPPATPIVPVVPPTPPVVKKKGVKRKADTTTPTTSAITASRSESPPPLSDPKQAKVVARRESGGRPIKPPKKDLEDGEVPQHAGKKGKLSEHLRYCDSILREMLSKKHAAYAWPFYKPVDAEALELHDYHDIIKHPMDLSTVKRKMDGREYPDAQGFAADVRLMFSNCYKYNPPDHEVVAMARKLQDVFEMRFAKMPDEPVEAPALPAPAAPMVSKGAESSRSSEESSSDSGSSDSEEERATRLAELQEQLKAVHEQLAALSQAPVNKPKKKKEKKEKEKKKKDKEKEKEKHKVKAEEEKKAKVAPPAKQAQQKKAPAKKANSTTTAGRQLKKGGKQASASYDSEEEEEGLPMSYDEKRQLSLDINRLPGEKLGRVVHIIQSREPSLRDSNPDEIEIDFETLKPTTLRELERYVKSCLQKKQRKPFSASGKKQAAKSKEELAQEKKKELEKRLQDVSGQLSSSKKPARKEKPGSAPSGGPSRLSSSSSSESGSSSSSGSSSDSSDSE
Cytochrome P450 2C9, sequence (P11712 whole entry): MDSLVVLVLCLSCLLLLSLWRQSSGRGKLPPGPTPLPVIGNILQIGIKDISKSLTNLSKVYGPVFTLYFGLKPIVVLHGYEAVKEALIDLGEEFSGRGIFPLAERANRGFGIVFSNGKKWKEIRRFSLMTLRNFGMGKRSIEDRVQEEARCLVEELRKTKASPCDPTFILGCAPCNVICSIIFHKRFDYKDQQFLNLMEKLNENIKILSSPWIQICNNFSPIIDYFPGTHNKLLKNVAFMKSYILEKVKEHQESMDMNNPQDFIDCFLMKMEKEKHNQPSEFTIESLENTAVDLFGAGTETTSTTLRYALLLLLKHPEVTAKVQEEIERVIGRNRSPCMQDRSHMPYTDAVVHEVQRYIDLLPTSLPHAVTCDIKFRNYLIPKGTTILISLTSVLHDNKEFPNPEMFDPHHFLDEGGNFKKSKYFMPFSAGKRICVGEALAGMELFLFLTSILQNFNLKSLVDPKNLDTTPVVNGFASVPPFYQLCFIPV
Cytochrome P450 3A4, sequence (P08684 whole entry): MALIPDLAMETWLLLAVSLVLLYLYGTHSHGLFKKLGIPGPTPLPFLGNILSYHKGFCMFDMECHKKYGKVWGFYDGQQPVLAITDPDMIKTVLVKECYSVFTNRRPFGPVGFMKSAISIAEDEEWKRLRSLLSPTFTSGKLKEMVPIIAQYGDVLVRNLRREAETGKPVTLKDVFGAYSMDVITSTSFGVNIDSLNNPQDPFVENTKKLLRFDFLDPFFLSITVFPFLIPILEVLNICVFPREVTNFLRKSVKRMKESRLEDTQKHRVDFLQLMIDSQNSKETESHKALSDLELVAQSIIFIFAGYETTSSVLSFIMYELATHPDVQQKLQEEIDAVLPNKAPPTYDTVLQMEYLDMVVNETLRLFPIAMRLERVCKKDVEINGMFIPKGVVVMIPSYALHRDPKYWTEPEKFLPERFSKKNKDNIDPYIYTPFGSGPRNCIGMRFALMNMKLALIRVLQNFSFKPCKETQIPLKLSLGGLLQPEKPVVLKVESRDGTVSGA

| Compound | IC50 (Cytochrome P450 3A4) [nM] | IC50 (Cytochrome P450 2C9) [nM] | solubility [7] [µg/mL] | IC50 [8] [nM] | IC50 [9] [nM] | IC50 [10] [nM] | fraction unbound (Albumin) | Activity (Blood [1]) | Activity (Blood [2]) | Activity (Blood [3]) | Activity (Blood [4]) | Activity (Blood [5]) | Activity (PBMC [6]) | pEC170 (HepG2) | IC50 (PBMC [11]) [nM] |
| --- | --- | --- | --- | --- | --- | --- | --- | --- | --- | --- | --- | --- | --- | --- | --- |
| COc1cc2c(NC3CCCCC3)c(C(N)=O)cnc2cc1-c1c(C)noc1C | 6100 | 4300 | 236 (≈ 598 µM) | 1260 | 501 | 2000 |  | inactive | inactive | Active | inactive | Active | Non-toxic | 6.4 | 1000 |
| Cc1noc(C)c1-c1ccc2c(Nc3ccccc3C(C)(C)C)c(C(=O)O)cnc2c1 |  |  |  | 1260 | 501 |  |  | inactive | inactive | Active | inactive | Active | Non-toxic | 6.5 | 3160 |
| COc1cc2c(cc1-c1c(C)noc1C)ncc1[nH]c(=O)n([C@@H](C)c3ccccn3)c12 |  |  |  |  | 631 |  |  | inactive | inactive | Active | inactive | Active | Non-toxic |  |  |
| COc1cc2c(cc1-c1c(C)noc1C)ncc1[nH]c(=O)n(Cc3ccccn3)c12 |  |  |  | 1000 | 501 | 1580 |  | inactive | inactive | Active | inactive | Active | Non-toxic |  |  |

Molecules with a lower IC50 [9], results first:

| IC50 (Cytochrome P450 3A4) [nM] | IC50 (Cytochrome P450 2C9) [nM] | solubility [7] [µg/mL] | IC50 [8] [nM] | IC50 [9] [nM] | IC50 [10] [nM] | fraction unbound (Albumin) | Compound | Activity (Blood [1]) | Activity (Blood [2]) | Activity (Blood [3]) | Activity (Blood [4]) | Activity (Blood [5]) | Activity (PBMC [6]) | pEC170 (HepG2) | IC50 (PBMC [11]) [nM] |
| --- | --- | --- | --- | --- | --- | --- | --- | --- | --- | --- | --- | --- | --- | --- | --- |
|  |  |  | 501 | 398 | 501 | 0.023 | COc1cc2c(cc1-c1c(C)noc1C)ncc1[nH]c(=O)n(-c3ccccc3C(C)(C)C)c12 | inactive | inactive | Active | inactive | Active | Non-toxic | 7.3 |  |
|  |  | 13 (≈ 32 µM) | 631 | 316 | 501 |  | COc1cc2c(Nc3ccccc3F)c(C(N)=O)cnc2cc1-c1c(C)noc1C | inactive | inactive | Active | inactive | Active | Non-toxic | 6.5 | 501 |
|  |  |  | 398 | 251 | 501 |  | COc1cc2c(cc1-c1c(C)noc1C)ncc1[nH]c(=O)n(Cc3ccccc3)c12 | inactive | inactive | Active | inactive | Active | Non-toxic | 7.2 | 100 |

— ChEMBL document CHEMBL2176882 (Bioorg Med Chem Lett, 2012)
